{
  "source": "patent US10487045B2",
  "about": "“Adamantane derivative and use thereof” (TOHOKU UNIVERSITY, priority 2016, dated 2019)",
  "key": {"Kir6.1 defective mice": {"test_system": "Kir6.1 defective mice", "test": "Tail-suspension and forced swim methods in Kir6.1 defective mice (hetero-type)", "format": "in vivo", "details": "chronic treatment", "protocol": "(§1) OBX mice were originally established as depression model mice although a deterioration of cognitive function was observed. Depression was analyzed by a tail-suspension method (a) and a forced swim method (b). The tail-suspension method is a method of pinching the tail of a mouse and hanging the mouse upside down. If the mouse hung has depression, immobility time is long. Since a normal mouse moves even if it is hung, the immobility time is short. In the forced swim method, a mouse is forced to swim in water in a beaker. A mouse having depression neither swims nor moves (just floating). Thus the immobility time is measured. Immobility time was long in OBX mice both in the tail-suspension method (a) and the forced swim method (b). The immobility time of a TP-014 chronic administration group (2 weeks, in the same administration method as that previously mentioned) was improved.\nImmobility time of Kir6.1 defective mice (hetero-type, n=5 per group) was measured by the tail-suspension method (a) and the forced swim method (b) in the same manner as in FIGS. 11a and 11b. The hetero-type mice are the mice in which the expression level of Kir6.1 channel is half (the homo type mice develops arrhythmia after birth and dies) in contrast to the homo type mice (complete defective mice). […] The chronic treatment with TP-014 was not effective. […]"}, "Kir6.2 channel": {"molecular_target": "T1, Kir6.2 channel (Mus musculus, UniProt Q61743)", "T1 construct": "expressed in transfected cells; host or cells: Neuro2A (N2A) cells, transient transfection with pcDNA3.1-Kir6.2 (gift of Dr. Toru Ishizuka, Tohoku University)", "T1 sequence (Q61743 1-390)": "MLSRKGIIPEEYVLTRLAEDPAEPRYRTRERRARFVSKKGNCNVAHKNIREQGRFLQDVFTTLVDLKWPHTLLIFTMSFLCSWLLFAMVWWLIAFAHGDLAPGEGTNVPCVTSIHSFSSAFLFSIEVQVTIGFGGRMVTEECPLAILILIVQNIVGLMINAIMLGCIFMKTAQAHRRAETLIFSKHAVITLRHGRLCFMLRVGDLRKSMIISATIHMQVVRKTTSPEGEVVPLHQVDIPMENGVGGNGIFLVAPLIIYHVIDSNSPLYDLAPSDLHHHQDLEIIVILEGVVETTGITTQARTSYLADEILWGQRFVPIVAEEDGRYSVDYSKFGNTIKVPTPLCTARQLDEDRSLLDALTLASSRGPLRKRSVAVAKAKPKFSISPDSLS", "test": "Calcium imaging method (Fura2) in Kir6.2 channel-overexpressing cells", "format": "cell-based", "protocol": "Using the same Kir6.2 channel-overexpressing cells as in Test Example 1, the amount of calcium that flows into cells from outside the cells by TP-014 treatment was measured by a calcium imaging method. The calcium imaging method is a method of measuring the amount of calcium based on the intensity of fluorescence of cultured nerve cells, which are treated in a culture solution containing a calcium fluorescent dye (Fura2, manufactured by Dojindo Laboratories) in a concentration of 4 μM. Imaging was carried out by an imaging apparatus (LAMBDA10-2, manufactured by SUTTER INSTRUMENT) in accordance with the manual attached to the apparatus."}, "APP23 mice": {"test_system": "APP23 mice", "test": "Long-term potentiation (LTP) in hippocampal slices, electrophysiological technique", "format": "in vivo", "details": "hippocampal slices of APP23 mice chronically treated", "protocol": "FIG. 4e to FIG. 4g show the results of long-term potentiation phenomenon (LTP)(serving as an index of memory formation) analyzed by an electrophysiological technique. The hippocampus in the brain plays an important role in memorization. The hippocampus was cut into slice sections (400 micrometers in thickness). The slice sections were placed in an artificial cerebrospinal fluid (126 mM NaCl, 5 mM KCL, 26 mM NaHCO3, 1.3 mM MgSO4-7H2O, 1.26 mM KH2PO4, 2.4 mM CaCl2-2H2O, 10 mM glucose) saturated with a 95% O2/5% CO2 gas at 34° C. for two hours and recovered. The hippocampal slice sections were transferred to a measuring chamber and the artificial cerebrospinal fluid containing TP-014 was perfused. The activity of the nerve cells when electrical stimulation was applied was recorded and the postsynaptic assembly potential (fEPSP) was measured. Based on them, the degree of LTP improvement was evaluated. Thereafter, an electrical stimulation (100 Hz) was applied to the hippocampus to cause a […] (it is considered that memory is formed by a […] in the hippocampus). It was confirmed that an increase rate of the neuronal excitation decreases in APP23 mice; whereas the increase rate is improved in the mice chronically treated with TP-014."}, "OBX mice": {"test_system": "OBX mice", "test": "Depression-like symptom: tail-suspension method and forced swim method in OBX mice", "format": "in vivo", "details": "chronic administration 2 weeks", "protocol": "as §1"}, "ob/ob": {"test_system": "ob/ob", "test": "Hypoglycemic effect, blood glucose level by assay kit", "format": "in vivo", "details": "1 mg/kg chronic treatment for 4 weeks; effect on and after 3 weeks; vs ob/ob (saline)", "protocol": "A hypoglycemic effect by TP-014 was checked by measuring the blood glucose level by an assay kit (manufactured by Technicon International co). The measurement was carried out for 4 weeks. […] As a control, tolbutamide was used. Kir6.2 channel binds to SUR1 ([…]) on the cell membrane to form a channel. Action mechanism is considered due to Kir6.2 channel inhibitory action. Tolbutamide binds to SUR1 to inhibit Kir6.2 channel."}},
  "data": [
    {"smiles": "O=C(N[C@@H](c1ccccc1)[C@H]1[C@H]2C[C@@H]3C[C@](Cl)(C2)C[C@@]1(OC(=O)C(F)(F)F)C3)C(F)(F)F", "note": "[TP-014, (1S,2R,3S,5S,7S)-5-chloro-2-((R)-phenyl(2,2,2-trifluoroacetamido)methyl)adamantan-1-yl 2,2,2-trifluoroacetate]", "values": [
      {"measurement": "depression-like symptom, immobility time in Kir6.1 defective mice", "setting": "Kir6.1 defective mice", "result": "not effective"},
      {"measurement": "calcium concentration increasing effect compared with memantine", "setting": "Kir6.2 channel; TP-014 1-100 nM vs memantine 100 nM", "result": "larger calcium concentration increasing effect than memantine"},
      {"measurement": "amount of calcium within cells", "setting": "Kir6.2 channel; TP-014 1-100 nM, 4 minutes after treatment, Kir6.2 channel-overexpressing cells", "result": "significantly increased"},
      {"measurement": "LTP, increase rate of neuronal excitation (fEPSP) after 100 Hz stimulation", "setting": "APP23 mice", "result": "improved"},
      {"measurement": "immobility time (tail-suspension method and forced swim method)", "setting": "OBX mice", "result": "improved"},
      {"measurement": "blood glucose level", "setting": "ob/ob", "result": "significantly decreased"}
    ]}
  ]
}
